Assay results reported in US20250248393A1, “METHOD OF RELEASING A SEMIOCHEMICAL IN THE ENVIRONEMENT BY PASSIVE DIFFUSION, SYSTEM AND MEANS, ESPECIALLY STICKS, TO THIS END, AND USES THEREOF” (SIGNS, priority 2024, published 2025).

Legend:
Format in all cases: physicochemical
[1] = F3 block stability study in sodium stearate aqueous gel (GC-MS); conditions: after 3 months
Procedure: Aqueous sodium stearate gel is a method used by SIGNS for several of the pheromones it markets (pork, poultry, rabbit). The sodium stearate matrix is cast at high temperature (60° C.) and contains 2% pheromone. In this study, matrix samples are taken by coring, and the active ingredients are extracted by apolar solvent, using the SIGNS-validated quality control method. Extracts are analyzed by GC-MS. […] Given this observation, formula F3 cannot be used in blocks for passive diffusion, so a change of galenic formulation is necessary.

[2] = F3P PCDS indirect diffusion, pheromone remaining in solution (GC/FID)
Procedure: For this study, three diffusers each containing 40 mL of product and 6 capillaries were prepared and diffused. Once a week, on Wednesdays, the amount of pheromone remaining in the solution was monitored by gas chromatography analysis coupled to a flame ionization detector (GC/FID) until no liquid remained. The percentage of pheromone was measured weekly.
Next, the percentage of pheromone was checked by external calibration using a GC/FID calibration range.
Analyses were carried out by gas chromatography coupled to a flame ionization detector. The instrument was a Shimadzu GC 2025® with an AOC20i® autosampler. Separation was performed on an Agilent DB-FFAP® column (30 m×0.25 mm×0.25 μm, stationary phase: nitroterephthalic acid-modified polyethylene glycol). The temperature of the gas chromatography oven was initially maintained at 140° C. for 2 minutes, then increased at 10° C./min to 250° C. and left at this temperature for 3 minutes. The carrier gas was helium at 1 mL/min. Analyses were performed in split mode using a split/splitless injector (temperature: 250° C., split: 1:50).
The detector used was a flame ionization detector. The detector temperature was 250° C. with an air flow rate of 400 mL/min, hydrogen 40 mL/min and nitrogen 30 mL/min.
For this purpose, a calibration range was prepared for each analysis. […]

[3] = F3 migration along the stick (top 1 cm, GC/MS); conditions: F3, five sticks
Procedure: Three devices containing 40 mL of F3 feline facial pheromone product and five […] sticks were prepared and left on diffusion. A t=1 day, T=3 days, T=10 days, T=15 days and T=22 days after preparation of the devices, one stick was taken on each device and 1 cm of the top of each stick was cut, then extracted with acetone 1 h in an ultrasonic bath and analysed by gas chromatography coupled with mass spectrometry (GC/MS). The same analytical parameters were used for the study C with a liquid injection (injected quantity: […]) Blank analysis and matrix blank analysis were also performed.

[4] = F3 direct diffusion, 120 mL and six sticks; conditions: 6 sticks
Procedure: To that purpose, three devices containing 120 mL of F3 feline facial pheromone product and six rattan sticks were prepared and left on diffusion as shown on FIG. 43.
The direct diffusion of F3 pheromone was then studied following the same protocol as the protocol of the first study shown in Section E/herein.
Each measuring day, the flasks were weighed, and the volume of the liquid was checked visually: see FIGS. 55 and 56.

[5] = Ratios of molecules diffused through the sticks over time
Procedure: Furthermore, as small molecules diffuse more, it happens that they lose intensity over the course of the study, so the ratios are different 24 hours after immersing the sticks in the liquid and 21 days later. Here are the ratios for each pheromone studied at the start of the study and at the end.

[6] = F3 sticks device, direct diffusion, 40 mL and four sticks (SPME GC/MS); conditions: four sticks
Procedure: (§1) Three devices containing 40 mL of F3 feline facial pheromone product and four rattan sticks were prepared and left on diffusion. Every Monday, Wednesday and Friday, the diffusion of the pheromone in air was checked by analysis by gas chromatography coupled with mass spectrometer (GC/MS) and SPME (solid phase microextraction) until there is no liquid left (about 22 days).
To that purpose, the studied device was taken and placed into a closed space (in our case an aquarium turned over) containing the SPME fiber as shown on FIG. 24.
The SPME fiber was left for two hours to give the time for the molecules to adsorb on the fiber, then the fiber was injected into the GC/MS instrument for analysis.
Analysis were carried out using gas chromatography with mass spectrometer. The instrument was a GCMS QP2010SE® from Shimadzu with an AOC6000® Autosampler. The separation was performed on a ZB-5 MS® column (30 m×0.25 mm×0.25 μm, stationary phase: 95% Dimethylpolysiloxane, 5% Phenyl-Arylene) from Phenomenex. The GC oven temperature was initially held at 100° C. for 1 minute then increased at a pace of 10° C./min to 120° C. and left at this temperature for 3 minutes. Finally, the oven temperature was increased at a pace of 10° C./min to 240° C. and left at this temperature for 10 minutes. The carrier gas was helium at 1 mL/min. Analysis were performed in split mode using a split/splitless injector (Temperature: 250° C., split: 1:20). The SPME fiber was directly injected into the injector and left for 30 minutes. Separated molecules were detected using a mass spectrometer which was operated in electron impact ionization (EI) in both full scan (FS) and single ion monitoring (SIM) modes, so called FASST (Fast Automated SCAN/SIM type) mode. The interface temperature was set at 300° C. and electron impact source temperature at 250° C. The analyser was a quadrupole.
For the measurement of the relative quantity of active ingredient spreading in air, the area of the chromatographic peak corresponding to the compound was measured using Shimadzu GCMS-Solution software.

[7] = F3 direct diffusion and mass loss, 40 mL and eight sticks with a refill; conditions: F3, eight sticks
Procedure: as §1, with “To that purpose, three devices” for “Three devices”, “and eight” for “and four”, “there was” for “there is”, “liquid left. Then, the solution was refilled and a second study of the diffusion of the pheromone was performed.” for “liquid left (about 22 days).”
Experimentally, the studied device was taken and placed into a closed space under identical conditions than in section E/, and for analyzing the same data.
Each measuring day, the devices were weighed and the level of the solution in the flask was controlled.

- stability in the block [1]: disappeared completely
- quantities found in the solution [2]: very low
- relative quantity on the top of the stick [3]: less present
- direct diffusion over time [4]: decreased over time
- ratio of molecules diffused through the sticks ([5]; F3, 24 h after immersion of sticks): 70 % (w/w)
- ratio of molecules diffused through the sticks ([5]; F3, 21 days after immersion of sticks (empty tank)): 48 % (w/w)
- ratio of molecules diffused through the sticks ([5]; F3P, 24 h after immersion of the sticks): 56 % (w/w)
- ratio of molecules diffused through the sticks ([5]; F3P, 21 days after immersion of sticks (empty tank)): 36.5 % (w/w)
- direct diffusion over time [6]: gradually decreased over time
- intensity of direct diffusion [7]: highest diffusion
SMILES: COC(=O)CCCCCC(=O)OC [dimethyl pimelate, dimethyl heptanedioate]
- quantity on the top of the stick over time [3]: decreased significantly between 5 and 10 days before stabilising
